Source: US7740906B2, “Wood preservatives” (Rohm and Haas Company, priority 2005, dated 2010)

Columns and labels:
[1] = Leaching assay (modified AWPA E11-97); type: physicochemical; details: 1000 ppm, 3* (30% DCOIT in xylene); no polymer, no added surfactant
Source text: In order to provide long term protection, the preservative needs to “fix” in the wood and not deplete too rapidly by volatilization or by leaching when the wood gets wet. It might be expected that enhanced penetration or enhanced movement of the preservative deep into the wood during treatment might also lead to reduced fixation of the organic wood preservative. However, it was discovered that the polymers used to provide enhanced penetration also effectively fix the organic biocide in the wood. Two different measures of fixation were used, a dislodgeable residue assay and a very aggressive leaching assay. The dislodgeable residue assay measures how much preservative can be removed or dislodged from the surface of the wood. This is a good assay to determine how much preservative is available or has migrated to the surface of the wood. […] All of the polymers provided exceptional control of dislodgeable residues except for one water soluble polymer that probably redissolves under the assay conditions. Another measure of fixation is resistance to leaching. A very aggressive leaching assay, the AWPA E11-97 assay was used. DCOIT is considered a low leaching organic biocide as is seen by the cumulative % of DCOIT leached in Table 6 with the xylene formulation which doesn't contain any added surfactant. Nonionic surfactants can facilitate the leaching of organic preservatives. […]

[2] = Partitioning of DCOIT between polymer and supernatant of the treatment solution (centrifugation, HPLC); type: physicochemical; details: treatment solution (1500 ppm DCOIT) centrifuged at 100,000 RPM for 20 minutes
Method: An aliquot of well-mixed sample was weighed into a one-ounce screw cap vial. Into the vial was pipetted 20 mL of methanol. The contents were sonicated for one hour in an ultrasonic bath. The sample was filtered through a 0.2 μm filter into an auto-sampler for analysis. The sample preparation was analyzed using a reverse phase HPLC procedure with UV detection according to the wood analysis method below.
A 3 g sample of as is treatment solution was centrifuged at 10,000 RPM for 10 minutes to precipitate any gelled polymer or other particulates. No solid precipitated. The treatment solution sample was further centrifuged at 100,000 RPM for 20 minutes to precipitated the polymer. The precipitated polymer plug and the clear supernatant were analyzed for DCOIT by HPLC.

DCOIT in polymer plug [2]: 38,000 ppm
DCOIT in supernatant [2]: 34 ppm
SMILES: CCCCCCCCn1sc(Cl)c(Cl)c1=O [DCOIT, 4,5-dichloro-2-n-octyl-4-isothiazolin-3-one]
% Biocide Leached (cumulative) [1]: 4.4%
